Measured values from publication PMC9865396, “The Effect of the Particle Size Reduction on the Biorelevant Solubility and Dissolution of Poorly Soluble Drugs with Different Acid-Base Character” (Pharmaceutics, 2023).
Where a name gives a salt, the structure may show the parent alone.

Tests used:
[1] = pKa and ionization state (species distribution) at the pH of the media; assay type: physicochemical
[2] = particle size distribution by laser diffractometry (Mastersizer 2000); assay type: physicochemical
Experimental: For Laser Diffractometry, 0.1 mL of milled suspensions were dispersed in 100 mL of demineralized water at a mixing speed of 1500 rpm with Mastersizer Hydro 2000 SM small volume dispersion unit. The particle size of the samples was measured at 25 ± 1 °C using a Mastersizer 2000 (Malvern Instruments Ltd., Malvern, UK). Laser diffraction measures the angular distribution of light scattered by the diluted sample and detects particles from 0.1 to 3000 μm. General purpose measurement with enhanced sensitivity mode was utilized, which was also useful for sample characterizations containing irregularly shaped particles. Every sample was measured three times individually, and the mean values were reported to track the changing of the particle size and span values (width of particle size distributions).

[3] = equilibrium solubility by the saturation shake-flask (SSF) method in FaSSIF/FeSSIF blank and full media; settings: blank buffers, 37 °C
Experimental: The equilibrium solubility of the samples was determined by the SSF method. The concentrations for the blank buffers were available at the manufacturer. FaSSIF full and FeSSIF full buffers were prepared from instant SIF powder added to the blank buffers and could be used for 48 h. For FaSSIF, a full 0.224 g of SIF powder was dissolved in 100 mL of blank phosphate buffer (pH = 6.5). After 2 h, a slightly opalesque solution was formed and it meant that it was ready for the measurement. For FeSSIF, a full 1.12 g of SIF powder was dissolved in 100 mL of blank acetate buffer (pH = 5.0) and was ready to use. The samples were added in excess to the aqueous buffer solutions to produce a suspension. To measure the original samples and the micronized forms in the presence of the excipients, the same 1 to 1 mass ratio was used as in the case of nanonized samples: a physical mixture was prepared from the API and the PVA or PVPK-25.
The prepared suspensions were vigorously stirred for 6 h at a controlled 37.0 ± 0.1 °C temperature followed by a sedimentation period of 18 h. […] The concentration of the saturated solutions was determined by UV spectroscopy using a Jasco V-550 UV/VIS spectrophotometer. The aliquots taken out from solubility experiments were diluted if necessary with the buffer used for the given solubility measurement, and the absorbance was measured at the λmax. […]

[4] = ampholyte; cited from earlier work
[5] = original and micronized compounds before solubility measurement, upper size limit for 10% of particles
[6] = original and micronized compounds before solubility measurement, upper size limit for 50% of particles
[7] = original and micronized compounds before solubility measurement, upper size limit for 90% of particles
[8] = solid phase at end of solubility measurement, pH = 5.0
[9] = solid phase at end of solubility measurement, pH = 6.5
[10] = pH = 5.0, calculated from protonation microconstants

## COc1ccc(Cc2nccc3cc(OC)c(OC)cc23)cc1OC [PAP original, papaverine hydrochloride]
[1]; pH = 5.0
  molecules protonated: 95.8%
[1]; pH = 6.5
  molecule in deprotonated state: approximately 50%
[2]; [5]
  d = 0.1: 153.97 µm
[2]; [6]
  d = 0.5: 488.62 µm
[2]; [7]
  d = 0.9: 887.93 µm
[2]; [8]
  d = 0.1: 4.60 µm
  d = 0.5: 49.42 µm
  d = 0.9: 189.96 µm
[2]; [9]
  d = 0.1: 7.96 µm
  d = 0.5: 33.39 µm
  d = 0.9: 98.40 µm

## O=C(O)c1cccnc1Nc1cccc(C(F)(F)F)c1 [NIF original, Niflumic acid]
[3]
  solubility in pH = 5.0 medium compared with pH = 6.5 medium: approximately ten times lower
[1]; [10]
  anionic form: 78.2%
  neutral form: 1.2%
  zwitterionic form: 20.6%
[1]; pH = 6.5, calculated from protonation microconstants
  anionic form: 99.1%
[2]; [5]
  d = 0.1: 71.45 µm
[2]; [6]
  d = 0.5: 183.25 µm
[2]; [7]
  d = 0.9: 579.83 µm
[2]; [8]
  d = 0.1: 56.21 µm
  d = 0.5: 151.25 µm
  d = 0.9: 488.95 µm
[2]; [9]
  d = 0.1: 19.07 µm
  d = 0.5: 58.55 µm
  d = 0.9: 128.24 µm
[4]
  pKa1: 2.26
  pKa2: 4.44

## NS(=O)(=O)c1cc(C(=O)O)c(NCc2ccco2)cc1Cl [FUR original, furosemide]
[1]; pH = 5.0
  H2A (non-ionized form): 3.3%
  HA− (monoanionic form): 96.7%
[2]; [5]
  d = 0.1: 7.36 µm
[2]; [6]
  d = 0.5: 62.46 µm
[2]; [7]
  d = 0.9: 294.13 µm
[2]; [8]
  d = 0.1: 16.24 µm
  d = 0.5: 51.23 µm
  d = 0.9: 110.56 µm
[2]; [9]
  d = 0.1: 4.72 µm
  d = 0.5: 14.63 µm
  d = 0.9: 35.04 µm
